Measured values: patent US20080287396A1, “Phosphonated Fluoroquinolones, Antibacterial Analogs Thereof, and Methods for the Prevention and Treatment of Bone and Joint Infections” (TARGANTA THERAPEUTICA INC., priority 2005, published 2008)
In brackets after ≈: the same amount, converted by molar mass.

Legend:
[1] = Levels of prodrug 52 in rat plasma in vivo
Protocol: Female CD rats (age, 57 to 70 days; n=3/group; Charles River, St-Constant, Canada) were administered a single bolus intravenous (tail vein) dose of compound 52 (dissolved in 0.85% NaCl) at 15.8 mg/kg of body weight, corresponding to 10 mg/kg of moxifloxacin 3. Animals were sacrificed by CO2 inhalation at the specified time points after i.v. dosing to evaluate the levels of 52 in plasma. Blood samples were collected by cardiac puncture and transferred in BD Vacutainer tubes (green cap) for plasma isolation. The plasma components were obtained by centrifugation of these samples and they were stored at −80° C. until analysis.
For the dosage of prodrug in the plasma, the standards and QCs were prepared (in duplicate) as follows: to 100 μl of blank plasma was added a spiking solution (5 μl) of the prodrug (52 in water). The range of the standards (8 levels) was from 0.06 to 25 μM and the QC levels were 0.18, 1.87 and 18.75 μM. Four samples of blank plasma without prodrug were also prepared. […]
Moxifloxacin 3 resulting from the cleavage of the prodrug was analyzed with the same method on an Agilent 1100™ series LC/MSD Trap, The extracted sample was injected into a Zorbax™ SB-Aq column (2×30 mm, 3.5μ), using 0.1% formic acid in water(aq) and 0.1% formic acid in acetonitrile(org) as the mobile phase, at a flow rate of 0.3 ml/min. […]

S. aureus ATCC 13709 = assay: Combination with Rifampicin in treatment of osteomyelitis induced in rats; format: in vivo, rat; conditions: 34 mg/kg 54 IV + 20 mg/kg Rifampicin s.c. on days 14, 15, 16, 17 after surgery; titer on day 43
Protocol: The cells were washed twice with phosphate-buffered saline (PBS) and resuspended in BHIB supplemented with 10% (vol./vol.) fetal bovine serum at a density of approximately 10^10 colony forming units (CFU)/ml (based upon turbidimetry). The suspension was aliquoted and a portion was used to check the CFU count. The culture was stored frozen (−80° C.) and was used without subculture. For use as an inoculum the culture was thawed, diluted in PBS and kept in an ice bath until it was used.
Animals were infected as described by O'Reilly et al. (Antimicrobial Agents and Chemotherapy (1992), 36(12): 2693-97) to generate the bone infection. Female CD rats (age, 57 to 70 days; n=5/group; Charles River, St-Constant, Canada) were anaesthetized by isofluorane before and during the surgery. Following complete induction of anesthesia, the rat was placed ventral side up and hair was shaved from the surgical site. The skin over the leg was cleaned and disinfected (proviodine-ethanol 70%). A longitudinal incision below the knee joint was made in the sagital plane. The incision was made over the bone below the “knee joint” (tibia head or condyle) but not completely extending to the ankle. A high speed drill fitted with a 2 mm bulb bit was used to drill a hole into the medullar cavity of the tibia. […]

[2] = test system: S. aureus strains ATCC13709 and RN4220; assay: microbe, parasite or virus in culture; format: cell-based; conditions: Staphylococcus aureus, ATCC13709; CAMHB, 37° C., 18 h; data not shown; read-out: minimum inhibitory concentration (MIC)
Protocol: Susceptibility of S. aureus strains ATCC13709 and RN4220 to the commercial antibiotics and synthesized compounds was determined by following the guidelines set by the Clinical and Laboratory Standards Institute (formerly the National Committee for Clinical Laboratory Standards) (M26-A). Compounds were diluted two-fold serially in DMSO and transferred to cation-adjusted Mueller Hinton broth (CAMHB; Becton Dickinson). 50 μL of compounds diluted in CAMHB was mixed with 100 μL of bacteria diluted in CAMHB in 96-well microtiter plates. The final number of micro-organisms in the assay was 5×10^5 c.f.u. per mL and the final concentration of DMSO in the assay was 1.25%. Assays were set up in duplicate and incubated at 37° C. for 18 h. The concentration of compound that inhibited visible growth was reported as the minimum inhibitory concentration (MIC).

Hela cells = assay: Cytotoxicity assay (MTS reduction); format: cell-based; conditions: concentrations up to 100 μM, 18 h, MTS reagent; data not shown
Summary of the method: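 HeLa cells (2×10^4 per well) exposed to compound at 100, 50, 25 and 12.5 μM in DMEM with 1% bovine growth serum, 18 h at 37° C., 5% CO2. Growth inhibition read by MTS tetrazolium reduction.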

| clearance from the blood circulation of rats, in words ([1]; FIG. 5) | half-life of clearance from the circulation ([1]; rat plasma, IV bolus 15.8 mg/kg, 5 min to 24 h) | SMILES | bacterial titer in the infected tibiae, combination with Rifampicin (S. aureus ATCC 13709) | MIC [2] [µg/mL] | cytotoxicity (Hela cells) |
| --- | --- | --- | --- | --- | --- |
| rapid clearance | less than one hour | COc1c(N2C[C@@H]3CCCN[C@@H]3C2)c(F)cc2c(=O)c(C(=O)OCC(=O)NC(P(=O)(O)O)P(=O)(O)O)cn(C3CC3)c12 [Compound 52, (1,1-Bisphosphonomethylcarbamoyl)methyl 1-cyclopropyl-6-fluoro-1,4-dihydro-7-((4aS,7aS)-octahydropyrrolo[3,4-b]pyridin-6-yl)-8-methoxy-4-oxoquinoline-3-carboxylate] | – | – | – |
| – | – | COc1c(N2CCNC(C)C2)c(F)cc2c(=O)c(C(=O)OCC(=O)NC(P(=O)(O)O)P(=O)(O)O)cn(C3CC3)c12 (centres unmarked) [Compound 54, (1,1-Bisphosphonomethylcarbamoyl)methyl 7-(3-methylpiperazin-1-yl)-1-cyclopropyl-6-fluoro-1,4-dihydro-8-methoxy-4-oxoquinoline-3-carboxylate] | statistically significant decrease (p=0.007) | 4 to 16 (≈ 6.6 to 26.4 µM) | no signs of any cytotoxicity |
